From patent US11040033B2 (Gilead Sciences, Inc., priority 2017, dated 2021)

Target: T1, IDO1 (Homo sapiens, UniProt P14902)
T1 construct: HeLa cells were treated with a test compound in the presence of IFNγ, which induces IDO1 expression; endogenous in cells; host or cells: H1-HeLa cells (ATCC #CRL-1958), induced with IFNγ
Assay: Cell-based (HeLa) assay for measurement of IDO1 inhibition (kynurenine levels in supernatant after IFNγ induction)
Details: H1-HeLa cells, IFNγ-induced IDO1, 48 hour incubation, kynurenine absorbance at 480 nm; geometric mean of a minimum of four determinations
Method in brief: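 HeLa cells (1,250/well, DMEM/10% FBS) exposed to compound (0.5% DMSO) with IFNγ (added as 50 ng/mL solution) for 48 h. Supernatant kynurenine measured after TCA treatment (60 °C, 30 min) with p-dimethylaminobenzaldehyde, A480. EC50 from four-parameter fit normalised to ±IFNγ controls; geometric mean of ≥4 runs.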

T1 sequence (P14902 whole entry): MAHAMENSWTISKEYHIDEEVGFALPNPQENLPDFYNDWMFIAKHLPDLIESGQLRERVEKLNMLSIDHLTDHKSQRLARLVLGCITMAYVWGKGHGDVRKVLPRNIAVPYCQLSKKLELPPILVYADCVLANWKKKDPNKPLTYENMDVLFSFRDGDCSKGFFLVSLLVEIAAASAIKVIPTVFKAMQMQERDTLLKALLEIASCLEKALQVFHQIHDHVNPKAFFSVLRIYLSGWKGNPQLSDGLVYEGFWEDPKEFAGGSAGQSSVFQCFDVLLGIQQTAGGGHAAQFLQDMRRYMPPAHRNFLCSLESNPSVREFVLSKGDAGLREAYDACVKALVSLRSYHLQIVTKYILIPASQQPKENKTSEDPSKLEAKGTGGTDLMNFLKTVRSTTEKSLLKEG

| EC50 [nM] | Compound |
| --- | --- |
| 2160 | Cc1ccc(-c2cccn3c(-c4cccnc4C)nnc23)cc1C(=O)Nc1ccc(F)cc1 [Example 4, N-(4-fluorophenyl)-2-methyl-5-(3-(2-methylpyridin-3-yl)-[1,2,4]triazolo[4,3-a]pyridin-8-yl)benzamide] |
| 23.1 | Cc1ccc(-c2cccn3c(-c4ncco4)ncc23)cc1C(=O)Nc1ccc(F)cc1 [Example 40, N-(4-fluorophenyl)-2-methyl-5-(3-(oxazol-2-yl)imidazo[1,5-a]pyridin-8-yl)benzamide] |
| 24.3 | Cc1ncc(-c2cccn3c(-c4cccc(F)c4F)ncc23)cc1C(=O)Nc1ccc(Cl)cc1F [Example 64, N-(4-chloro-2-fluorophenyl)-5-(3-(2,3-difluorophenyl)imidazo[1,5-a]pyridin-8-yl)-2-methylnicotinamide] |
| 110 | Cc1ncc(-c2cccn3c(-c4cccc(F)c4F)ncc23)cc1C(=O)Nc1ccc(OC(F)(F)F)cc1 [Example 58, 5-(3-(2,3-difluorophenyl)imidazo[1,5-a]pyridin-8-yl)-2-methyl-N-(4-(trifluoromethoxy)phenyl)nicotinamide] |
| 25.2 | O=C(Nc1ccc(F)cc1)c1cc(-c2cccn3c(-c4cnccn4)ncc23)ccc1C(F)(F)F [Example 36] |
| 399 | Cc1cnc(-c2cccn3c(-c4cccc(F)c4F)ncc23)nc1C(=O)Nc1ccc(F)cc1 [Example 65, 2-(3-(2,3-difluorophenyl)imidazo[1,5-a]pyridin-8-yl)-N-(4-fluorophenyl)-5-methylpyrimidine-4-carboxamide] |
